Experimental data reported in the Deep4Chem optical property database.
Each block holds one molecule with its values, some of them ahead of it.

Test: photoluminescence quantum yield (fraction); solvent given as SMILES

photoluminescence quantum yield (in CCO): 0.19 | photoluminescence quantum yield (in ClCCl): 0.47
SMILES: Cc1ccccc1-c1c2ccc(=[N+]3CCN(C(=O)OC(C)(C)C)CC3)cc-2oc2cc(N3CCN(C(=O)OC(C)(C)C)CC3)ccc12

photoluminescence quantum yield (in C1COCCO1): 0.028
SMILES: N#Cc1ccc(/C=C2\N=C(c3ccccc3)OC2=O)cc1

photoluminescence quantum yield (in ClCCl): 0.85
SMILES: FC(F)(F)c1ccccc1B1c2ccccc2Nc2ccccc21

photoluminescence quantum yield (in CC#N): 0.51
SMILES: CCOC(=O)c1c2c3c(cccc3c3cc4c(cc13)[Si](C)(C)O[Si]4(C)C)N(C)C2=O

photoluminescence quantum yield (in c1ccccc1): 0.152
SMILES: CN(C)c1ccc2ccc3oc(=O)c(-c4ccccc4)nc3c2c1

photoluminescence quantum yield (in ClCCl): 0.00593
SMILES: COC(=O)C1=C(C(=O)OC)C2(c3ccccc3-c3c(C(=O)OC)cccc32)[C@@H](c2ccc(Cl)cc2)C=C2c3cc(OC)c(OC)cc3CCN21 (some centres undefined)

photoluminescence quantum yield (in ClCCl): 0.33
SMILES: COc1ccc2cc(/C=C/C3=C4CCc5ccccc5C4=[O+][B-](F)(F)O3)ccc2c1

photoluminescence quantum yield (in CC#N): 0.027
SMILES: Cc1cc2nc3c(=O)[nH]c(=O)n(C)c3nc2cc1C

photoluminescence quantum yield (in CCCCCC): 0.434
SMILES: CCOC(=O)c1cc(C)n2nc(-c3ccccc3)ccc12

photoluminescence quantum yield (in ClCCl): 0.95
SMILES: O=C1OC(=O)C2=C1S[C@]13C2=C[C@H](c2ccccc21)c1ccccc13

photoluminescence quantum yield (in C1COCCO1): 0.0191 | photoluminescence quantum yield (in CC#N): 0.00752 | photoluminescence quantum yield (in CCCCO): 0.0169 | photoluminescence quantum yield (in CCCO): 0.0108 | photoluminescence quantum yield (in CCO): 0.00738 | photoluminescence quantum yield (in CCOC(C)=O): 0.0275 | photoluminescence quantum yield (in CO): 0.00499
SMILES: CN1C(C(=O)Nc2ccccn2)=C(O)c2sccc2S1(=O)=O

photoluminescence quantum yield (in ClC(Cl)Cl): 0.28
SMILES: CCCCCCN1C(=O)c2cccc3c(-c4cc5ccccc5s4)ccc(c23)C1=O

photoluminescence quantum yield (in CCCCCCC): 0.16
SMILES: c1ccc2c3c(ccc2c1)-c1cccc2c1c-3cc1ccccc12

photoluminescence quantum yield (in ClCCl): 0.21
SMILES: c1csc(-c2ccc3c4ccc(-c5cccs5)cc4n(-c4cccs4)c3c2)c1

photoluminescence quantum yield (in CC#N): 0.8 | photoluminescence quantum yield (in ClCCl): 0.82
SMILES: Cn1c(=O)cc(C(=O)c2ccccc2)c2sc(-c3ccc(C(F)(F)F)cc3)cc21

photoluminescence quantum yield (in CC#N): 0.0041 | photoluminescence quantum yield (in CC(C)O): 0.054 | photoluminescence quantum yield (in CCO): 0.082 | photoluminescence quantum yield (in CO): 0.12 | photoluminescence quantum yield (in OCCO): 0.23
SMILES: Cc1ccc2sc3cc(CCC(=O)O)ccc3c(=O)c2c1

photoluminescence quantum yield (in C1CCOC1): 0.14
SMILES: F[Si](c1ccccc1)(c1ccccc1)c1cccc2ccccc12

photoluminescence quantum yield (in C1CCOC1): 0.53 | photoluminescence quantum yield (in CC#N): 0.47 | photoluminescence quantum yield (in CCO): 0.45 | photoluminescence quantum yield (in CO): 0.44 | photoluminescence quantum yield (in ClCCl): 0.5
SMILES: O=C1C2=C(O[B-](F)(F)[n+]3c2ccc2ccccc23)c2cccc3c(N4CCOCC4)ccc1c23

photoluminescence quantum yield (in ClCCl): 0.15
SMILES: CCCCCC(=O)c1ccc2c3c(sc2c1)-c1ccccc1P3(=O)c1ccccc1 (centres undefined)

photoluminescence quantum yield (in C1CCOC1): 0.38
SMILES: N#Cc1c(N2CCCCC2)cc(-c2ccc(-c3ccccc3)cc2)c2c1CCc1ccccc1-2

Second part, the molecule before the results:

SMILES: N#C/C(=C\c1ccncc1)c1nc(-c2ccccc2)cs1
photoluminescence quantum yield (in CC#N): 0.263 | photoluminescence quantum yield (in CCO): 0.6 | photoluminescence quantum yield (in CN(C)C=O): 0.406 | photoluminescence quantum yield (in CS(C)=O): 0.124 | photoluminescence quantum yield (in Cc1ccccc1): 0.346 | photoluminescence quantum yield (in ClCCl): 0.086

SMILES: CCOC(=O)/N=c1/oc2cc(OC)cc(OC)c2cc1C#N
photoluminescence quantum yield (in ClCCl): 0.059

SMILES: COc1ccc(O[B-]2(Oc3ccc(OC)cc3)n3c(C)cc(C)c3C(c3ccc(I)cc3)=C3C(C)=CC(C)=[N+]32)cc1
photoluminescence quantum yield (in ClC(Cl)Cl): 0.004

SMILES: O=CC12N=N[C@](C=O)(C3C4CCC(C4)C31)C1[C@@H]3CC[C@@H](C3)[C@H]12 (some centres undefined)
photoluminescence quantum yield (in CC#N): 0.049

SMILES: Fc1nc(F)c(F)c(C#Cc2cc3c(cc2C#Cc2c(F)c(F)nc(F)c2F)OC2(CCCCC2)O3)c1F
photoluminescence quantum yield (in CC#N): 0.9

SMILES: Cc1cc(C)c(B(c2c(C)cc(C)cc2C)c2c(C)cc(N3c4ccccc4Oc4ccccc43)cc2C)c(C)c1
photoluminescence quantum yield (in Cc1ccccc1): 0.44 | photoluminescence quantum yield (in c1ccc2c(c1)c1ccccc1n2-c1ccc(-c2ccc(-n3c4ccccc4c4ccccc43)cc2)cc1): 0.92

SMILES: CCCCN1c2ccccc2Sc2cc(/C=C/C3=Nc4ccc5ccccc5c4C3(C)C)ccc21
photoluminescence quantum yield (in C1CCCCC1): 0.09 | photoluminescence quantum yield (in C1CCOC1): 0.12 | photoluminescence quantum yield (in C1COCCO1): 0.17 | photoluminescence quantum yield (in CC#N): 0.05 | photoluminescence quantum yield (in CC(C)=O): 0.06 | photoluminescence quantum yield (in CC(C)O): 0.07 | photoluminescence quantum yield (in CCOC(C)=O): 0.13 | photoluminescence quantum yield (in CCOCC): 0.14 | photoluminescence quantum yield (in CO): 0.01 | photoluminescence quantum yield (in CS(C)=O): 0.09 | photoluminescence quantum yield (in Cc1ccccc1): 0.18 | photoluminescence quantum yield (in ClCCl): 0.11

SMILES: CCCCCCn1c2ccccc2c2cc3c4cc5c6ccccc6n(CCCCCC)c5cc4c4cc5c(C)cc(=O)oc5cc4c3cc21
photoluminescence quantum yield (in ClC(Cl)Cl): 0.12

SMILES: c1ccc(-c2ccc(-c3ccc(N(c4ccccc4)c4ccccc4)cc3)c3nsnc23)cc1
photoluminescence quantum yield (in C1CCOC1): 0.105 | photoluminescence quantum yield (in CC(C)=O): 0.01 | photoluminescence quantum yield (in CCCCCC): 0.492 | photoluminescence quantum yield (in CCOCC): 0.201

SMILES: COc1ccc(C2=[N+]3C(=Nc4c(-c5cc(OC)c(OC)c(OC)c5)c(Br)c(-c5ccc(OC)cc5)n4[B-]3(F)F)C(c3cc(OC)c(OC)c(OC)c3)=C2Br)cc1
photoluminescence quantum yield (in Cc1ccccc1): 0.002

SMILES: c1ccc(N(c2ccccc2)c2ccc(-c3ccc4c(c3)C3(c5cc(-c6ccc(N(c7ccccc7)c7ccccc7)cc6)ccc5O4)c4ccccc4-c4ccccc43)cc2)cc1
photoluminescence quantum yield (in ClCCl): 0.47 | photoluminescence quantum yield (in c1cc(-n2c3ccccc3c3ccccc32)cc(-n2c3ccccc3c3ccccc32)c1): 0.45

SMILES: COc1c2ccccc2c(OC)c2c(C#CC(C)(C)C)c3cc4sccc4cc3c(C#CC(C)(C)C)c12
photoluminescence quantum yield (in C1CCOC1): 0.1 | photoluminescence quantum yield (in Cc1ccccc1): 0.14 | photoluminescence quantum yield (in ClCCl): 0.08

SMILES: N#Cc1cc(-c2ccc(/C=C/c3ccc(N(c4ccccc4)c4ccccc4)cc3)c(C#N)c2)ccc1/C=C/c1ccc(N(c2ccccc2)c2ccccc2)cc1
photoluminescence quantum yield (in ClCCl): 0.37

SMILES: COC(=O)C(Cc1ccc2oc(-c3ccc(N(C)c4ccccc4)cc3)nc2c1)NC(=O)OC(C)(C)C (centres undefined)
photoluminescence quantum yield (in C1CCCCC1): 0.998 | photoluminescence quantum yield (in C1CCOC1): 0.27 | photoluminescence quantum yield (in C1COCCO1): 0.73 | photoluminescence quantum yield (in CC1CCCO1): 0.52 | photoluminescence quantum yield (in CC1COC(=O)O1): 0.11 | photoluminescence quantum yield (in CC#N): 0.11 | photoluminescence quantum yield (in CC(C)=O): 0.19 | photoluminescence quantum yield (in CC(C)CC(C)(C)C): 1 | photoluminescence quantum yield (in CC(C)CO): 0.2 | photoluminescence quantum yield (in CC(C)O): 0.19 | photoluminescence quantum yield (in CC(O)CO): 0.11 | photoluminescence quantum yield (in CCC(C)CC): 0.97 | photoluminescence quantum yield (in CCCCC): 1 | photoluminescence quantum yield (in CCCCCC): 1 | photoluminescence quantum yield (in CCCCCCCCC): 0.95 | photoluminescence quantum yield (in CCCCCCCCCC): 1 | photoluminescence quantum yield (in CCCCCCCO): 0.21 | photoluminescence quantum yield (in CCCCCCO): 0.22 | photoluminescence quantum yield (in CCCCCO): 0.28 | photoluminescence quantum yield (in CCCCO): 0.18 | photoluminescence quantum yield (in CCO): 0.07 | photoluminescence quantum yield (in CCOC(C)=O): 0.39 | photoluminescence quantum yield (in CCOCC): 0.6 | photoluminescence quantum yield (in CN(C)C=O): 0.16 | photoluminescence quantum yield (in CO): 0.03 | photoluminescence quantum yield (in COCCOC): 0.07 | photoluminescence quantum yield (in CS(C)=O): 0.15 | photoluminescence quantum yield (in Cc1ccccc1): 0.78 | photoluminescence quantum yield (in Cc1ccccc1C): 0.84 | photoluminescence quantum yield (in ClC(Cl)Cl): 0.58 | photoluminescence quantum yield (in ClCCl): 0.45 | photoluminescence quantum yield (in NC=O): 0.02 | photoluminescence quantum yield (in OC1CCCCC1): 0.18 | photoluminescence quantum yield (in OCCO): 0.03 | photoluminescence quantum yield (in c1ccccc1): 0.76

SMILES: O=C1C(=c2c(=O)c3c4ccccc4cc4cc5ccccc5c2c43)C(=O)c2ccccc21
photoluminescence quantum yield (in C1CCOC1): 0.235 | photoluminescence quantum yield (in CC#N): 0.09 | photoluminescence quantum yield (in CCCCCC): 0.292 | photoluminescence quantum yield (in Cc1ccccc1): 0.268 | photoluminescence quantum yield (in ClCCl): 0.193

SMILES: c1ccc2c(c1)[nH]c1cccnc12
photoluminescence quantum yield (in C1CCCCC1): 0.145 | photoluminescence quantum yield (in C1CCOC1): 0.081 | photoluminescence quantum yield (in C1COCCO1): 0.122 | photoluminescence quantum yield (in CCO): 0.129 | photoluminescence quantum yield (in CN(C)C=O): 0.079 | photoluminescence quantum yield (in Cc1ccccc1): 0.099 | photoluminescence quantum yield (in ClC(Cl)Cl): 0.124 | photoluminescence quantum yield (in Clc1ccccc1): 0.119

SMILES: Cc1cc(C)c(B(c2ccc(N3c4ccccc4Oc4ccccc43)cc2)c2c(C)cc(C)cc2C)c(C)c1
photoluminescence quantum yield (in Cc1ccccc1): 0.87

SMILES: c1csc(-c2ccc(-c3cccs3)s2)c1
photoluminescence quantum yield (in CC#N): 0.09 | photoluminescence quantum yield (in ClCCl): 0.05

SMILES: CC(C)(C)c1cc(-c2c3cccc4c5cccc6c(-c7cc(C(C)(C)C)cc(C(C)(C)C)c7)c7cccc8c9cccc2c9c(c34)c(c65)c78)cc(C(C)(C)C)c1
photoluminescence quantum yield (in Cc1ccccc1): 0.81

SMILES: F[B-]1(F)n2c(c3cccc4cccc2c43)=Nc2sc3ccccc3[n+]21
photoluminescence quantum yield (in C1CCOC1): 0.89 | photoluminescence quantum yield (in CC#N): 0.97 | photoluminescence quantum yield (in CCCCCC): 0.87 | photoluminescence quantum yield (in Cc1ccccc1): 0.76 | photoluminescence quantum yield (in ClCCl): 0.85

SMILES: CCCCCCCCN1c2ccc(C#Cc3ccc(C(F)(F)F)cc3)cc2Sc2cc(C=O)ccc21
photoluminescence quantum yield (in C1CCOC1): 0.67 | photoluminescence quantum yield (in CC#N): 0.63 | photoluminescence quantum yield (in CCCCCC): 0.57 | photoluminescence quantum yield (in CO): 0.23 | photoluminescence quantum yield (in CS(C)=O): 0.72 | photoluminescence quantum yield (in Cc1ccccc1): 0.62 | photoluminescence quantum yield (in ClC(Cl)Cl): 0.59

SMILES: COc1ccc(-c2oc3cccc4c5c(-c6ccc(OC)c(OC)c6)c(=N)oc6cccc(c2c34)c65)cc1OC
photoluminescence quantum yield (in ClC(Cl)Cl): 0.41

SMILES: COCCC1=Cc2nc1ccc1[nH]c(cc1CCOC)c1nc(c(N3C(=O)CCCC3=O)cc3[nH]c2cc3CCOC)C(CCOC)=C1
photoluminescence quantum yield (in Cc1ccccc1): 0.36

SMILES: C(#Cc1cccc2cc(-c3ccccc3)c3cc(-c4cc[b-]5c(c4)c(-c4ccccc4)cc4cccc(C#Cc6ccccc6)[n+]54)cc[b-]3[n+]12)c1ccccc1
photoluminescence quantum yield (in C1CCCCC1): 0.02

SMILES: CCCCCCCCOC(=O)c1ccc(-c2cc3ccc4cc(-c5ccc(C(=O)OCCCCCCCC)cc5)cc5ccc(c2)c3c45)cc1
photoluminescence quantum yield (in Cc1ccccc1): 0.33

SMILES: CCN(CC)c1ccc2cc(/C=C/C(O)=C/C(C)=O)c(=O)oc2c1
photoluminescence quantum yield (in CC#N): 0.36 | photoluminescence quantum yield (in CC(C)=O): 0.46 | photoluminescence quantum yield (in CCOC(C)=O): 0.5 | photoluminescence quantum yield (in CO): 0.35 | photoluminescence quantum yield (in CS(C)=O): 0.39 | photoluminescence quantum yield (in Cc1ccccc1): 0.66 | photoluminescence quantum yield (in ClC(Cl)Cl): 0.53 | photoluminescence quantum yield (in ClCCl): 0.52

SMILES: N#Cc1cccc(N2c3ccccc3C(c3ccccc3)(c3ccccc3)c3ccccc32)c1
photoluminescence quantum yield (in Cc1ccccc1): 0.1
